Assay results as given in patent US7332522B2, “Liver function protecting or ameliorating agent” (Kyowa Hakko Kogyo Co., Ltd., priority 2001, dated 2008).
Where two headings read alike, the source gives them in different places.

How the values were obtained:
[1] = tested on: mast cells; settings: at 100 μM; induced by compound 48/80 or calcium ionophore A23187; cited from earlier work
[2] = tested on: rat skin passive anaphylaxis; settings: oral administration, cited from earlier work
[3] = iron rhodanate method; cited from earlier work
[4] = tested on: leukocyte; settings: in vitro; cited from earlier work
[5] = tested on: rat gastric ulcer induced by ethanol hydrochloride; settings: 75 mg/kg, oral administration; cited from earlier work
[6] = 200 mg/kg; cited from earlier work
[7] = tested on: Galactosamine-induced Rat Hepatopathy; assay: Suppression of galactosamine-induced rat hepatopathy, GPT level in serum; assay type: in vivo, Male Wistar white rats; settings: 15 days, serum 22 h after galactosamine 350 mg/kg i.p., relative to Comparative Example 1 feed = 100%, average ± standard error
Protocol: Male Wistar white rats (150±20 g, purchased from Japan SLC) were kept for at least 3 days under a fixed condition (temperature: 24±2° C., humidity: 60±5%, light and dark interval: 12 hours) for adaptation, and then fed respectively with the feeds produced in Examples 4-8 and the feed produced in Comparative Example 1 for 15 days. On the 14th day, 350 mg/kg of galactosamine (dissolved in physiological saline at a concentration of 35 mg/ml, and adjusted to pH 7.1) was intraperitoneally administered to each rat. Twenty-two hours after the administration of galactosamine, each of the rats was subjected to laparotomy under anesthesia with Nembutal and blood was collected.
Using thus obtained blood samples, blood GPT activity was measured as an indication of a liver function in the following manner. The collected blood was coagulated and separated by centrifugation to obtain a serum. The GPT level in the serum was measured using Fuji Drychem System 3500 (manufactured by Fuji Photo Film Co., Ltd.) with thus obtained serum. The GPT activity of each test group was calculated as the relative value (%) from the value obtained for each Example based on the value obtained for the feed in Comparative Example 1 expressed as 100%. The value is expressed in terms of average value±standard error and the statistical test of significance was carried out by Student's T-test.

[8] = tested on: rat liver microsome; settings: cited from earlier work
[9] = tested on: hyaluronidase; settings: cited from earlier work
[10] = tested on: Staphylococcus aureus; settings: at 1000 ppm; cited from earlier work
[11] = tested on: Staphylococcus epidemidis; settings: at 1000 ppm; cited from earlier work

In the case of `O=C1O[C@H]([C@@H](O)c2ccc(O)cc2)c2cccc(O)c21` [hydramacrophyllol A, reference compound], the “suppression of release of histamine from mast cells” value (“suppression of release of histamine” below) [1] is listed as “not suppressed”.

In the case of `O=C1O[C@@H]([C@@H](O)c2ccc(O)cc2)c2cccc(O)c21` [hydramacrophyllol B, reference compound], the “suppression of release of histamine” value [1] is listed as “not suppressed”.

For `O=C1OC(c2ccc(O)cc2)Cc2cccc(OC3OC(CO)C(O)C(O)C3O)c21` (stereo not shown) [hydrangenol 8-O-glucoside], the “suppression of release of histamine” value [1] is given as “not suppressed” and the “suppression of rat skin passive anaphylaxis” value ([2]; 300 and 500 mg/kg) is given as “suppress”.

For `O=C1OC(c2ccc(O)cc2)Cc2cccc(O)c21` (stereo not shown) [hydrangenol], the “suppressive activity on linoleic acid oxidation” value [3] is listed as “weak suppressive activity”, the “suppression of release of histamine” value [1] is listed as “not suppressed” and the “concentration active in differentiation-inducing activity on leukocyte” value [4] is listed as 300 µM. For the same compound, the “suppression of rat gastric ulcer induced by ethanol hydrochloride” value [5] was “do not suppress”, the “suppression of rat skin passive anaphylaxis” value ([2]; 500 mg/kg) was “suppress” and the cholagogic activity [6] was “do not exhibit this activity”. For the same compound, the “GPT activity (%)” value ([7]; feed of Example 7, hydrangenol 0.324% in feed) was 64.6 ± 116.5%, the “GPT activity (%)” value ([7]; feed of Example 8, hydrangenol 0.108% in feed) was 27.8 ± 45.4% and the “suppressive activity on NADPH dependent lipid peroxidation” value [8] was “weak suppressive activity”. The hyaluronidase inhibitory activity [9] was “hyaluronidase inhibitory activity”.

In the case of `COc1ccc(C2Cc3cccc(OC4OC(CO)C(O)C(O)C4O)c3C(=O)O2)cc1O` (stereo not shown) [phyllodulcin 8-O-glucoside], the “suppression of release of histamine” value [1] is given as “not suppressed” and the “suppression of rat skin passive anaphylaxis” value ([2]; 300 and 500 mg/kg) is given as “suppress”.

For `COc1ccc([C@H]2Cc3cccc(O)c3C(=O)O2)cc1O` [phyllodulcin], the “suppressive activity on linoleic acid oxidation” value [3] is given as “more potent suppressive activity than α-tocopherol or BHA”, the “suppression of release of histamine” value [1] is given as “not suppressed” and the proliferation suppressive activity [10] is given as “proliferation suppressive activity”. For the same compound, the “concentration active in differentiation-inducing activity on leukocyte” value [4] was 300 µM, the “suppression of rat gastric ulcer induced by ethanol hydrochloride” value [5] was “do not suppress” and the “suppression of rat skin passive anaphylaxis” value ([2]; 300 and 500 mg/kg) was “does not suppress”. The proliferation suppressive activity [11] was “proliferation suppressive activity”, the cholagogic activity [6] was “do not exhibit this activity” and the “GPT activity (%)” value ([7]; feed of Example 4, phyllodulcin 0.366% in feed) was 11.8 ± 18.0%. For the same compound, the “GPT activity (%)” value ([7]; feed of Example 5, phyllodulcin 0.122% in feed) was 54.7 ± 32.2%, the “GPT activity (%)” value ([7]; feed of Example 6, phyllodulcin 0.037% in feed) was 52.7 ± 59.9% and the “suppressive activity on NADPH dependent lipid peroxidation” value [8] was “suppressive activity at a similar level to α-tocopherol”.

For `O=c1oc(-c2ccc(O)c(O)c2)cc2cccc(O)c12` [thunberginol A], the “concentration active in differentiation-inducing activity on leukocyte” value [4] is given as 100 µM and the “suppression of rat skin passive anaphylaxis” value ([2]; 300 and 500 mg/kg) is given as “suppress”.

For `O=C1O/C(=C\c2ccc(O)c(O)c2)c2cccc(O)c21` [thunberginol F, reference compound], the “suppression of rat skin passive anaphylaxis” value ([2]; 300 and 500 mg/kg) is given as “suppress”.
